According to BindingDB's records for doi:10.1080/14756360701546413 (Dumlupinar University, 2008):

Molecular target: Glutathione-disulfide reductase (Escherichia coli O157:H7, UniProt A0A0H3JIZ9)
Experiment: Enzyme Assay
Procedure: The enzyme activities in the absence of drugs or chemicals were taken as 100%. For each drug or chemical, an activity%-(drug) graph was drawn and drug concentrations producing 50% inhibition were calculated for the inhibitors.

Chain of Glutathione-disulfide reductase (A0A0H3JIZ9 whole entry): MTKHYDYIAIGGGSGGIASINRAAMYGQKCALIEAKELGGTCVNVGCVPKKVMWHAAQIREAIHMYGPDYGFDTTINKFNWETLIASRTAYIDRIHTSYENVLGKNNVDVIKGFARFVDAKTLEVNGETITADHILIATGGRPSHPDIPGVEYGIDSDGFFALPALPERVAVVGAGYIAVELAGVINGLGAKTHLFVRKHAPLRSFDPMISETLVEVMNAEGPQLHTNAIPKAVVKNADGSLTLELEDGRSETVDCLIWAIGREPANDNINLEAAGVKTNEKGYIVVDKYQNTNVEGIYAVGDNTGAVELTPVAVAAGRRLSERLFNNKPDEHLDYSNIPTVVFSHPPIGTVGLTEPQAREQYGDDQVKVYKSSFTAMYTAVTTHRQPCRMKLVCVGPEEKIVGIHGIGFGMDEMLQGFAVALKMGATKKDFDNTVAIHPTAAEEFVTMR

| Compound | IC50 | Ki |
| --- | --- | --- |
| CC(CCC(=O)Nc1nnc(S(N)(=O)=O)s1)C1CCC2C3CCC4CC(O)CCC4(C)C3CCC12C (centres undefined) [Sulfonamide derivative, 1] | 47.1 µM | 72.3 µM |
| CC(CCC(=O)Nc1nnc(S(N)(=O)=O)s1)C1CCC2C3C(O)CC4CC(O)CCC4(C)C3CCC12C (centres undefined) [Sulfonamide derivative, 2] | 4.5 µM | 6.1 µM |
